Results from patent US6274590A, “Method of treating skin related conditions” (G. D. Searle & Co., priority 2000, dated 2001).
pIC50: −log10 of the molar value.

Key:
[1] = tested on: prostaglandin synthetase; conditions: U.S. Pat. No. 4,820,827; cited from earlier work
[2] = reported in cited literature or patents; cited from earlier work
[3] = tested on: carrageenan-induced hyperalgesic foot withdrawal; test: Rat Carrageenan-induced Analgesia Test; type: in vivo, rat (male Sprague-Dawley); conditions: oral, 3 h after carrageenan
Description: (§1) The carrageenan foot edema test was performed with materials, reagents and procedures essentially as described by Winter, et al., (Proc. Soc. Exp. Biol. Med., 111, 544 (1962) Male Sprague-Dawlev rats were selected in each group so that the average body weight was as close as possible. Rats were fasted with free access to water for over sixteen hours prior to the test. The rats were dosed orally (1 mL) with compounds suspended in vehicle containing 0.5% methylcellulose and 0.025% surfactant, or with vehicle alone. one hour later a subplantar injection of 0.1 mL of 1% solution of carrageenan/sterile 0.9% saline was administered and the volume of the injected foot was measured with a displacement plethysmometer connected to a pressure transducer with a digital indicator. Three hours after the injection of the carrageenan, the volume of the foot was again measured. The average foot swelling in a group of drug-treated animals was compared with that of a group of placebo-treated animals and the percentage inhibition of edema was determined (Otterness and Bliven, Laboratory Models for Testing NSAIDs, in Non-steroidal Anti-Inflammatory Drugs, (J. Lombardino, ed. 1985)).
The analgesia test using rat carrageenan was performed with materials, reagents and procedures essentially as described by Hargreaves, et al., (Pain, 32, 77 (1988)). Male Sprague-Dawley rats were treated as previously described, for the Carrageenan Foot Pad Edema test. Three hours after the injection of the carrageenan, the rats were placed in a special plexiglass container with a transparent floor having a high intensity lamp as a radiant heat source, positionable under the floor. After an initial twenty minute period, thermal stimulation was begun on either the injected foot or on the contralateral uninjected foot. […] The time until the rat withdraws its foot was then measured. The withdrawal latency in seconds was determined for the control and drug-treated groups, and percent inhibition of the hyperalgesic foot withdrawal determined.

[4] = tested on: carrageenan foot edema; test: Rat Carrageenan Foot Pad Edema Test; type: in vivo, rat (male Sprague-Dawley); conditions: @ 10 mg/kg body weight, oral, 3 h after carrageenan
Description: as §1

[5] = target: T1, Murine COX I (Mus musculus, UniProt P22437); test: COX I activity in vitro (PGE2 ELISA, recombinant enzyme); type: biochemical; conditions: arachidonic acid 10 μM, read-out: Murine COX I ID50
T1 construct: A 2.0 kb fragment containing the coding region; made in house; host or cells: SF9 insect cells (recombinant baculovirus, pVL1393)
T1 sequence (P22437 27-602): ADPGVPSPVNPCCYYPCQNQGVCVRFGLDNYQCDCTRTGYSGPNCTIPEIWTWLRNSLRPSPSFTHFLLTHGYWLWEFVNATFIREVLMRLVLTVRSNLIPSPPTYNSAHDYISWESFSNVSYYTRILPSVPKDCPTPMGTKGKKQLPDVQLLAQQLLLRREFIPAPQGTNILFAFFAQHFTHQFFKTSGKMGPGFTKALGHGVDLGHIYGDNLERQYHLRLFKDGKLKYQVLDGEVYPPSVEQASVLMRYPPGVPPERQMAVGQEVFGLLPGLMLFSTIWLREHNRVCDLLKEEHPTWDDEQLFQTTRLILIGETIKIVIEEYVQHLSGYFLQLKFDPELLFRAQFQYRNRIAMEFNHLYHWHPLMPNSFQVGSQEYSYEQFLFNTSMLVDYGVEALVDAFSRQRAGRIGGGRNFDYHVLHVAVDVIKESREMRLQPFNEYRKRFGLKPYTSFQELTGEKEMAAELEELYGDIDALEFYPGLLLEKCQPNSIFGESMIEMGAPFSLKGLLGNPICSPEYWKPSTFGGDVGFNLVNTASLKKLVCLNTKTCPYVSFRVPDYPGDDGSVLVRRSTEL
Description: (§2) A 2.0 kb fragment containing the coding region of either human or murine COX-I or human or murine COX-II was cloned into a BamH1 site of the baculovirus transfer vector pVL1393 to generate the baculovirus transfer vector. Recombinant baculoviruses were isolated by transfecting 4 μg of baculovirus transfer vector DNA into SF9 cells (2×10e8) along with 200 ng of linearized baculovirus plasmid DNA by the calcium phosphate method. Recombinant viruses were purified by three rounds of plaque purification and high titer (10E7-10E8 pfu/ml) stocks of virus were prepared. For large scale production, SF9 insect cells were infected in 10 liter fermentors (Bioprocess group) 0.5×10^6 /ml) with the recombinant baculovirus stock such that the multiplicity of infection was 0.1. […] The homogenate was centrifuged at 10,000×G for 30 minutes, and the resultant supernatant was stored at -80° C. before being assayed for COX activity.
(§3) COX activity was assayed as PGE2 formed/μg protein/time using an ELISA to detect the prostaglandin released. CHAPS-solubilized insect cell membranes containing the appropriate COX enzyme were incubated in a potassium phosphate buffer (50 mM, pH 8.0) containing epinephrine, phenol, and heme with the addition of arachidonic acid (10 μM). […] The PGE2 formed was measured by standard ELISA technology (Cayman Chemical).

[6] = target: T2, Murine COX II (Mus musculus, UniProt Q05769); test: COX II activity in vitro (PGE2 ELISA, recombinant enzyme); type: biochemical; conditions: arachidonic acid 10 μM, read-out: Murine COX II ID50
T2 construct: A 2.0 kb fragment containing the coding region; made in house; host or cells: SF9 insect cells (recombinant baculovirus, pVL1393)
T2 sequence (Q05769 18-604): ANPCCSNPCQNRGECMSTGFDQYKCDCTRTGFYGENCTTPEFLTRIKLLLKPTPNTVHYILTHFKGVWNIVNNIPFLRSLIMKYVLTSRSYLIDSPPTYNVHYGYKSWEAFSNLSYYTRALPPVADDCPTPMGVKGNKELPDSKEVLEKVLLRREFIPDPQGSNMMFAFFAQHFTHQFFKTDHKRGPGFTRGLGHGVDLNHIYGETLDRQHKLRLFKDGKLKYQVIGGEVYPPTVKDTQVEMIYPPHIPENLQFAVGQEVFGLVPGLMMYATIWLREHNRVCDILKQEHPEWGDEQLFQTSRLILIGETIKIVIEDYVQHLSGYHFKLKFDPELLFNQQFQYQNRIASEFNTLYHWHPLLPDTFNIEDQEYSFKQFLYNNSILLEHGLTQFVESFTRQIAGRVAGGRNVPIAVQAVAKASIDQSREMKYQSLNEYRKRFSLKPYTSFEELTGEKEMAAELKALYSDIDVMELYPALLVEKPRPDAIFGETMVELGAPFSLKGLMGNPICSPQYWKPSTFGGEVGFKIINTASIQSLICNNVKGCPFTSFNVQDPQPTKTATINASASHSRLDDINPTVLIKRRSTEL
Description: as §2, §3

[7] = tested on: COX II enzyme; conditions: J. Biol. Chem., 268, 6610 (1993); cited from earlier work
[8] = Gen. Pharmac., 24, 105 (1993); cited from earlier work

SMILES: CSc1ccc(-c2sc(Br)cc2-c2ccc(F)cc2)cc1 [5-bromo-2-(4-methylthiophenyl)-3-(4-fluorophenyl)thiophene]
- prostaglandin synthetase inhibitory activity [1]: prostaglandin synthetase inhibitory activity
- antiinflammatory activity [2]: antiinflammatory

SMILES: CS(=O)(=O)c1ccc(-c2csc(Br)c2-c2ccc(F)cc2)cc1 [Example 2, 4-(4-Methylsulfonylphenyl)-3-(4-fluorophenyl)-2-bromothiophene]
- ANALGESIA % Inhibition ([3]; @3 mpk): 0%
- RAT PAW EDEMA % Inhibition [4]: 30%

SMILES: CS(=O)(=O)c1ccc(-c2cscc2-c2ccc(F)cc2)cc1 [Example 1, 3-(4-Methylsulfonylphenyl)-4-(4-fluorophenyl)thiophene]
- ANALGESIA % Inhibition ([3]; @ 20 mg/kg body weight): 8%

SMILES: COc1ccc(-c2cscc2-c2ccc(OC)cc2)cc1 [Example 4, 3,4-Bis(4-methoxyphenyl)thiophene]
- RAT PAW EDEMA % Inhibition [4]: 22%

SMILES: CS(=O)(=O)c1ccc(-c2cscc2-c2ccc(F)nc2)cc1 [Example 14]
- ANALGESIA % Inhibition ([3]; @ 20 mg/kg body weight): 28%
- RAT PAW EDEMA % Inhibition [4]: 30%

SMILES: CCOC(=O)c1sc(C(=O)O)c(-c2ccc(F)cc2)c1-c1ccc(S(C)(=O)=O)cc1 [Example 8, 2-Ethoxycarbonyl-4-(4-fluorophenyl)-3-(4-methanesulfonylphenyl)-thienyl-5-carboxylic acid]
- pIC50 [5]: < 4.00
- pIC50 [6]: 5.26

SMILES: COc1ccc2cc(CC(=O)O)ccc2c1 [6-methoxy-2-napthylacetic acid]
- inhibition of the COX II enzyme [7]: selectively inhibit the COX II enzyme

SMILES: CCOC(=O)CCc1scc(-c2ccccc2)c1-c1ccccc1 [ethyl 3,4-diphenylthiophene-2-propionate]
- antiinflammatory activity [2]: antiinflammatory activity

SMILES: CS(=O)(=O)c1ccc(-c2c(Br)sc(Br)c2-c2ccc(F)cc2)cc1 [Example 3, 4-(4-Methylsulfonylphenyl)-3-(4-fluorophenyl)-2,5-dibromothiophene]
- pIC50 [5]: 4.00

SMILES: CS(=O)(=O)Nc1ccc([N+](=O)[O-])cc1OC1CCCCC1 [N-(2-cyclohexyloxy-4-nitrophenyl)methanesulfonamide]
- gastric side effects [8]: lacks gastric side effects
- antiinflammatory activity [2]: antiinflammatory

SMILES: Cc1cc(F)ccc1-c1cscc1-c1ccc(S(C)(=O)=O)cc1 [Example 15]
- RAT PAW EDEMA % Inhibition [4]: 20%
